Two compounds from ChEMBL document CHEMBL1158939, “Auranticins A and B: two new depsidones from a mangrove isolate of the fungus Preussia aurantiaca” (J Nat Prod, 1991) can be followed below.

The source made the active and inactive calls. The calls are words filed in the database; no cut-off is given here.

In one assay the test system is Staphylococcus aureus. In words: Antimicrobial activity against Staphylococcus aureus at 50 ug/disk. It counts as functional, organism-based.
For the next assay, the system named is Bacillus subtilis. In words: Antimicrobial activity against Bacillus subtilis at 5 ug/disk. In kind it is functional, organism-based.

As for `C/C=C(\C)c1cc(OC)c(C)c2c1Oc1c(CO)c(O)cc(/C(C)=C/C(=O)O)c1C(=O)O2`, the result in the assay with Staphylococcus aureus and in the assay with Bacillus subtilis was Active.
With `C/C=C(\C)c1cc(OC)c(C)c2c1Oc1c(C=O)c(O)cc(/C(C)=C/C(=O)O)c1C(=O)O2`, the outcome with Staphylococcus aureus and in the assay on Bacillus subtilis was Active.
